In patent US11286268B1, “EIF4E-inhibiting compounds and methods” (EFFECTOR THERAPEUTICS, INC., priority 2019, dated 2022):
Where two headings read alike, the source gives them in different places.

Biological target: recombinant eIF4E (Homo sapiens (Human), UniProt P06730)
Assay: Fluorescence polarization competition assay for eIF4E binding potency
Summary of the method: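 Competition of test compound against 20 nM EDA-m^7GDP-ATTO-550 for 75 nM recombinant eIF4E, pre-incubated 5 min, in 20 mM Tris pH 7.5, 100 mM NaCl, 1 mM DTT, 0.02% Tween-20, 1% DMSO. Equilibrated 30 min at room temperature, dark; fluorescence polarization read. IC50 from 8-point, 3-fold dilution series.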

[1] = fluorescence polarization competition, 75 nM recombinant eIF4E, 20 nM EDA-m7GDP-ATTO-550, IC50 class, read-out: elF4E FP
[2] = inhibition of eIF4E/EDA-m7GDP-ATTO-550 binding by 50%, Table 4B calculated values, read-out: IC50
[3] = inhibition of eIF4E/EDA-m7GDP-ATTO-550 binding, calculated IC50 values, Table 4B, read-out: IC50

Chain of recombinant eIF4E (P06730 whole entry): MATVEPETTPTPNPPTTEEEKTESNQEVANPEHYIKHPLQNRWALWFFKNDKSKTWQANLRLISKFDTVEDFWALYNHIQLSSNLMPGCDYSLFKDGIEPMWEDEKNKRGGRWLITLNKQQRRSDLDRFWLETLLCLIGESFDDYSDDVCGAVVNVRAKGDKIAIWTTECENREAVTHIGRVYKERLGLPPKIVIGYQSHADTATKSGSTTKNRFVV

Compound | IC50 [1] | IC50 [2] | IC50 [3]
Cc1cc(-c2cc(Cl)ccc2OCCn2c(C)nc3cc(Cl)c(N(C)C(C)(C)C)c(C#N)c3c2=O)c2scc(C(=O)O)c2n1 [compound 955] | < 50 nM | 10.2 nM | 
Cc1nc2cc(S(C)(=O)=O)cc(C#N)c2c(=O)n1CCOc1ccc(Cl)cc1-c1ccnc2c(C(=O)O)csc12 [compound 194] | < 50 nM | 35.8 nM | 
Cc1nc2cnc(N(C)C3CCN([C@H]4C[C@H](F)C4)CC3)c(C#N)c2c(=O)n1CC#Cc1ccc(Cl)cc1-c1ccnc2c(C(=O)NS(=O)(=O)c3ccccn3)csc12 [compound 1793] |  |  | 7.29 nM
N#Cc1cc(C#N)c2c(=O)n(CCOc3ccc(Cl)cc3-c3cccc(C(=O)O)c3)c(CF)nc2c1 [compound 231] | < 50 nM | 12.9 nM | 
Cc1cccc(S(=O)(=O)NC(=O)c2csc3c(-c4cc(Cl)ccc4C#CCn4c(C)nc5cnc(N(C)C6CCN(CC(C)(F)F)CC6)c(C#N)c5c4=O)ccnc23)n1 [compound 1678] |  |  | 28 nM
Cc1nc2cncc(C#N)c2c(=O)n1CC#Cc1ccc(Cl)cc1-c1ccc(C(=O)O)c(C(=O)O)c1 [compound 149] | 50 to 1000 nM | 110 nM | 
Cc1nc2cnc(N(C)C3CCN(CC(F)(F)C(F)F)CC3)c(C#N)c2c(=O)n1CC#Cc1ccc(Cl)cc1-c1ccnc2c(C(=O)NS(=O)(=O)c3ccccn3)csc12 [compound 1706] |  |  | 12.1 nM
Cc1sc2c(-c3cc(Cl)ccc3OCCn3c(C)nc4c(C)nc(N5CCN(C)CC5)c(C#N)c4c3=O)ccnc2c1C(=O)O [compound 1297] |  |  | 37.8 nM
Cc1cc(-c2cc(Cl)ccc2OCCn2c(C)nc3cnc(N4[C@@H]5C[C@H]4CN(C)C5)c(C#N)c3c2=O)c2sc(C)c(C(=O)O)c2n1 [compound 1203] | < 50 nM |  | 9.15 nM
Cc1cc(-c2cc(Cl)ccc2OCCn2c(C)nc3cnc(-c4ccccc4Cl)c(C#N)c3c2=O)c2scc(C(=O)O)c2n1 [compound 947] | < 50 nM | 23.7 nM | 
Cc1nc2cnc(C3CCC(F)(F)CC3)c(C#N)c2c(=O)n1CCOc1ccc(Cl)cc1-c1ccnc2c(C(=O)O)csc12 [compound 260] | < 50 nM | 20.4 nM | 
Cc1nc2cnc(OC3CCNCC3)c(C#N)c2c(=O)n1CCOc1ccc(Cl)cc1-c1ccnc2c(C(=O)O)csc12 [compound 819] | < 50 nM | 28.2 nM | 
N#Cc1cn(CCOc2ccc(Cl)cc2-c2ccnc3c(C(=O)O)csc23)c2c(=O)[nH]c(Nc3ccccc3)nc12 [compound 175] | < 50 nM | 20.4 nM | 
COc1cc2nc(C)n(CCOc3ccc(Cl)cc3-c3cc(C)nc4c(C(=O)O)c(C)sc34)c(=O)c2c(C#N)c1N1CCN(C)CC1 [compound 1208] | < 50 nM |  | 48.9 nM
Cc1nc2cnc(N3CCN(C4CC4)CC3)c(C#N)c2c(=O)n1CCOc1ccc(Cl)cc1-c1ccnc2c(C(=O)O)csc12 [compound 1306] |  |  | 38.9 nM
Cc1cc(-c2cc(Cl)ccc2OCCn2c(C)nc3cc(C(F)(F)F)c(-c4ccnc5c4CCN5)c(C#N)c3c2=O)c2scc(C(=O)O)c2n1 [compound 1192] | < 50 nM |  | 48.8 nM
Cc1cc(-c2cc(Cl)ccc2OCCn2c(C)nc3cc(C(F)(F)F)c(-c4cnsc4)c(C#N)c3c2=O)c2scc(C(=O)O)c2n1 [compound 347] | < 50 nM | 32.1 nM | 
C=C1c2c(C#N)cc(C(F)(F)F)cc2N=C(C)N1CCOc1ccc(Cl)cc1-c1cc(CCO)nc2c(C(=O)O)csc12 [compound 595] | < 50 nM | 24.8 nM | 
Cc1nc2cc(OC(F)(F)F)c(Cl)c(C#N)c2c(=O)n1CCOc1ccc(Cl)cc1-c1ccnc2c(C(=O)O)csc12 [compound 542] | < 50 nM | 20.2 nM | 
CNS(=O)(=O)c1cc2c(=O)n(CCOc3ccc(Cl)cc3-c3cccc(C(=O)O)c3)cnc2cn1 [compound 32] | 50 to 1000 nM | 190 nM | 
Cc1nc2cc(CN3CC(F)(F)C3)c(OC(F)F)c(C#N)c2c(=O)n1CCOc1ccc(Cl)cc1-c1ccnc2c(C(=O)O)csc12 [compound 1277] |  |  | 38.4 nM
N#Cc1cncc2nc(C(F)F)n(CCOc3ccc(Cl)cc3-c3ccnc4c(C(=O)O)csc34)c(=O)c12 [compound 39] | 50 to 1000 nM | 116 nM | 
